The test system of assay [1] is Fgfr3Y367C/+ mice. Briefly: Achondroplasia phenotype in Fgfr3Y367C/+ mice (whole body autoradiography, bone lengths). Conditions: dosing from day 1 of birth for 15 days; single agent or combination. Type of assay: in vivo.
Experimental: Animals are sacrificed on day 16 and tissues fixed for histologic or immunohistochemical analysis. Either compound is administered alone or in combination. The dose levels employed for Rosuvastatin are 0.25, 0.5, 1.0 and 2.0 mg/kg. […] The ratios ranges from 1:1-24:1
Reversion of phenotypical features are assessed using whole body autoradiography. The animals are placed on their right side, with the left hind leg more forward than the right, to allow both hind legs to be visible on the X-ray. Bones obtained at necropsy include femur, tibia, humerus, ulna, lumbar vertebra segment L 4-6 and are measured with a caliper.
Assay [2] has as its system hypophysectomized (HYPOX) SPF Sprague Dawley rats. Briefly: Histomorphometric measurement of proliferative zone width of right tibia growth plate. It is filed as in vivo, rat. Conditions: Somatropin alone versus control (vehicle). As to the method:
(§1) Method: This study was performed in order to test and compare the effect of Lys26 CNP-38 PEG4×10 kDa conjugate, Somatropin and combinations of the two compounds in an animal model relevant for investigating treatment of growth deficiency. The Somatropin (human growth hormone, hGH) was a United States Pharmacopeia (USP) Reference Standard and was prepared according to supplier instructions. Lys26 CNP-38 PEG4×10 kDa conjugate and Somatropin were administered alone or in combination via subcutaneous injection to hypophysectomized (HYPOX) SPF Sprague Dawley rats for a total of 29 days. The animals were dosed daily with Somatropin or vehicle, and weekly with Lys26 CNP-38 PEG4×10 kDa conjugate (at two different sites in animals receiving both test items on days 1, 8, 15, 22, and 29). The dose levels employed for Lys26 CNP-38 PEG4×10 kDa conjugate were 0.3, 1.0, and 2.0 mg/kg. Somatropin was employed at […] with a concentration of 10 μg/mL (˜8-10 μg/kg with animal weights between 100-120 g during the study period). The animals were weighed predose and once daily during the dosing period. […] Animals were sacrificed on day 30, and femur and tibia were trimmed and their length measured using a caliper. Hereafter, right tibia was fixed and processed for histologic and histomorphometric analysis.

Assay [3] has the same test system. Briefly: Body weight gain in hypophysectomized rats. Type of assay: in vivo, rat. As to the method: as §1
For assay [4] the test system is unchanged. Briefly: Histologic evaluation of HE stained right tibia, width of the endochondral/ossification zone. It is filed as in vivo, rat. As to the method:
as §1

Assay [5] shares this test system. Briefly: Femur and tibia length measured with a caliper in hypophysectomized rats. Conditions: Somatropin alone, daily s.c.; relative to the vehicle group; day 30. Type of assay: in vivo, rat. As to the method: as §1

`CC(C)c1nc(N(C)S(C)(=O)=O)nc(-c2ccc(F)cc2)c1/C=C/[C@@H](O)C[C@@H](O)CC(=O)O` [Rosuvastatin]: the “reversal of the achondroplasic phenotype” value in assay [1] is given as “beneficial effect on reversal of the achondroplasic phenotype is observed”.

For “Somatropin: human growth hormone, hGH; United States Pharmacopeia (USP) Reference Standard”, the “width of the proliferative zone” value in assay [2] is “not different from control (vehicle) animals”. Further, the “Average BWG (g) (±SE)” value in assay [3] (body weight gain day 0 (predose) to day 28, Somatropin alone, daily s.c. 10 μL/animal of 10 μg/mL (~8-10 μg/kg)) was 4.44 (±0.94) g. The “body weight gain” value in assay [3] (compared to vehicle treated group) is reported as “Significant body weight gains”. The “Number of animals, width of endochondral/ossification zone Normal (grade 0)” value in assay [4] (Somatropin alone) is reported as 9. Besides, in assay [4] (compared to vehicle or to conjugate alone), the “width of the endochondral/ossification zone, histologic evaluation” value is “did not differ from background (vehicle)”. Besides, in assay [5], the “increase in femur length” value is listed as −0.04±0.08 mm and the “increase in tibia length” value was determined as 0.55±0.17 mm.

Values taken from patent publication US12667604B2, “Combination therapy with controlled-release CNP agonists” (ASCENDIS PHARMA GROWTH DISORDERS A/S, priority 2016, dated 2026).
